Measured values as given in paper PMC6778101 (Nature Communications, 2019).
Read-outs that look alike come from different tables or passages of the source. Ends that are not written are not given here.

How the values were obtained:
E. coli K-12 BW25113 = experiment: microbe, parasite or virus in culture; type: cell-based, Escherichia coli
Source text: Unless otherwise indicated, Minimal Salt (MS) medium was used in all experiments, including the laboratory evolution experiments. In line with previous, methodologically relevant laboratory evolution studies, the physical conditions (including the medium) were the same during the course of laboratory evolution and all forthcoming assays on the resulting resistant lines (e.g. MIC measurements). We previously optimized this medium for studying AMPs (1 g L^−1 (NH4)2SO4, 3 g L^−1 KH2PO4 and 7 g L^−1 K2HPO4 supplemented with 0.1 mM MgSO4, 0.54 µg mL^−1 FeCl3, 1 µg mL^−1 thiamine hydrochloride, 0.2% Casamino acids and 0.2% glucose)[19]. This medium is highly controlled and provides a reproducible environment for experimental evolution experiments. All components were obtained from Sigma-Aldrich.
MICs were determined using a standard serial broth dilution technique. Briefly, 11-step serial dilutions were prepared in 96-well microtiter plates with three replicates per strain and antimicrobial compound. Each experiment was repeated at least twice. 5 × 10^5 cells/mL were inoculated into each well, and the plates were incubated at 30 °C in case of E. coli K-12 BW25113, and its antibiotic and AMP-adapted lines, or 37 °C in case of the other bacterial species. […] Cell growth was monitored by measuring the optical density (OD600 value, Biotek Synergy 2 microplate reader was used for this purpose). […] Relative MIC was calculated as follows: MICrelative = MICevolved/MICcontrol.

[1] = test system: E. coli K-12 BW25113 carrying ASKA plasmids; experiment: microbe, parasite or virus in culture; type: cell-based, Escherichia coli; settings: MS medium + 10 µg mL−1 CHL + 500 µM IPTG, 5 × 10^5 cells, 16–18 h, 37 °C; for MIC: Escherichia coli
Source text: Bacterial gene amplification generates extensive genetic variation that can provide drug resistance[37],[38]. As gene amplification events tend to be genetically unstable and reduce bacterial fitness, they are transient in nature. Using the ASKA library, which comprises each E. coli ORF cloned into an expression vector[40], we have conducted a global survey to evaluate whether artificially amplified genes provide resistance to any of the 14 AMPs and 11 antibiotics tested. As chloramphenicol (CHL) was used as a selection marker for the ASKA plasmid, this antibiotic was not tested in this screen. E. coli K-12 BW25113 cells were transformed with the pooled plasmids of the ASKA library, and the genetically mixed populations were exposed to increasing levels of AMP or antibiotic stresses, respectively. In all cases, the employed AMP or antibiotic dosages were above the MIC of the wild type. For each drug, we identified the MIC provided in the pooled ASKA plasmid library, and compared it to the MIC of the wild-type strain carrying the empty ASKA plasmid.
The ASKA library (a complete set of E. coli K-12 ORF archive) includes every E. coli ORF cloned into an expression vector (pCA24N)[65]. Prior to screening, the ASKA plasmid collection was pooled and transformed into E. coli K-12 BW25113 strain[66]. The plasmid pool was created by pooling an equal aliquot of cells, each carrying different members of the ASKA library, followed by plasmid miniprep. Next, the plasmid pool was electroporated into E. coli K-12 BW25113 competent cells. […] For the MICs measurements 500 000 cells were inoculated in each well which represents ~100 times coverage of each library member. […] Prior to the measurements the cell population containing the pooled overexpression library or the control strain containing the empty vector were grown in three replicates in LB medium supplemented with 20 µg/mL CHL. As the culture reached high density (i.e., OD600 > 0.8), expression of the plasmid was induced by 50 µM IPTG for 1 h. Following induction, 5 × 10^5 bacterial cells were inoculated in three replicates into each well of the 96-well plate and incubated for 16–18 h at 37 °C. Following incubation the MIC values were determined by measuring optical densities in a plate reader (Biotek Synergy).

[2] = starting wild-type strain of the evolution experiment, broth dilution, MS medium, 5 × 10^5 cells/mL, 30 °C, 24 h, MIC = OD600 < 0.05
[3] = Escherichia coli, BW25113, 24 h, read-out: MIC
[4] = BW25113, Replicate 1, read-out: MIC value of E. coli K-12 BW25113 carrying the empty plasmid of the ASKA library
[5] = BW25113, Replicate 1, read-out: MIC value of E. coli K-12 BW25113 carrying the pooled plasmids of the ASKA library
[6] = BW25113, Replicate 2, read-out: MIC value of E. coli K-12 BW25113 carrying the empty plasmid of the ASKA library
[7] = BW25113, Replicate 2, read-out: MIC value of E. coli K-12 BW25113 carrying the pooled plasmids of the ASKA library
[8] = BW25113, Replicate 3, read-out: MIC value of E. coli K-12 BW25113 carrying the empty plasmid of the ASKA library
[9] = BW25113, Replicate 3, read-out: MIC value of E. coli K-12 BW25113 carrying the pooled plasmids of the ASKA library

Compound | MIC (E. coli K-12 BW25113; [2]) [µg/mL] | MIC value of E. coli K-12 BW25113 carrying the empty plasmid of the ASKA library ([1]; Replicate 1) [µg/mL] | MIC value of E. coli K-12 BW25113 carrying the pooled plasmids of the ASKA library ([1]; Replicate 1) [µg/mL] | MIC value of E. coli K-12 BW25113 carrying the empty plasmid of the ASKA library ([1]; Replicate 2) [µg/mL] | MIC value of E. coli K-12 BW25113 carrying the pooled plasmids of the ASKA library ([1]; Replicate 2) [µg/mL] | MIC value of E. coli K-12 BW25113 carrying the empty plasmid of the ASKA library ([1]; Replicate 3) [µg/mL] | MIC value of E. coli K-12 BW25113 carrying the pooled plasmids of the ASKA library ([1]; Replicate 3) [µg/mL] | MIC (E. coli K-12 BW25113; [3]) [µg/mL] | MIC [1, 4] [µg/mL] | MIC [1, 5] [µg/mL] | MIC [1, 6] [µg/mL] | MIC [1, 7] [µg/mL] | MIC [1, 8] [µg/mL] | MIC [1, 9] [µg/mL] | MIC (E. coli K-12 BW25113; Escherichia coli, BW25113, 24 h) [µg/mL]
RRRPRPPYLPRPRPPPFFPPRLPPRIPPGFPPRFPPRFP [PR39] | 5 | 5.79 | 5.79 | 5.79 | 5.79 | 5.79 | 5.79 |  |  |  |  |  |  |  | 
CO[C@@]1(NC(=O)Cc2cccs2)C(=O)N2C(C(=O)O)=C(COC(N)=O)CS[C@@H]21 [FOX, Cefoxitin] |  |  |  |  |  |  |  | 4.9 | 6.07 | 69.2 | 6.07 | 69.2 | 6.07 | 69.2 | 
CCn1cc(C(=O)O)c(=O)c2ccc(C)nc21 [NAL, Nalidixic acid] |  |  |  |  |  |  |  | 6.35 | 0.37 | 1.05 | 0.37 | 1.05 | 0.37 | 1.05 | 
O=C1CN(/N=C/c2ccc([N+](=O)[O-])o2)C(=O)N1 [NIT, Nitrofurantoin] |  |  |  |  |  |  |  |  | 6.53 | 14.7 | 6.53 | 14.7 | 6.53 | 6.53 | 35
FLGKVFKLASKVFKAVFGKV [R8] | 20 | 11.57 | 11.57 | 11.57 | 11.57 | 11.57 | 9.46 |  |  |  |  |  |  |  | 
